Calls of active or inactive are those of the source.
Experiments:
[1] = molecular target: Protein disulfide-isomerase (Homo sapiens, UniProt P07237); assay: inhibition of PDI-driven insulin aggregation – biochemical, turbidity, absorbance, cherry-picked samples, dose response (AID 602350); assay type: functional
[2] = PAX8-dependent cell viability loss – plate reader, dry powder, dose response (AID 743049); assay type: functional, cell-based
BJ [3] = assay: growth inhibition of engineered Ras-driven BJ cells – cell-based, alamar blue fluorescence, cherrypicked samples, dose response (AID 2631); assay type: functional; settings: Homo sapiens;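 note: confirmatory dose-response assay in RAS-dependent BJ fibroblasts engineered with TERT, LT and ST, with cytotoxicity read by fluorescence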
Vero [4] = assay: cells; assay type: functional, cell-based; settings: Chlorocebus sabaeus
Vero [5] = assay: cells; assay type: functional; settings: Chlorocebus sabaeus
[6] = luciferase reporter signal suppression in cells – H4 neuroglioma cells, luminescence, dose response (AID 1990); assay type: functional, cell-based
[7] = alpha-synuclein stem-loop luciferase translation blockers – H4 neuroglioma cells, luminescence, confirmation (AID 1988); assay type: functional, cell-based
[8] = OVCAR-3 cell viability loss – plate reader, dry powder samples, PAX8 inhibitor project, dose response (AID 743044); assay type: functional, cell-based
[9] = toxicity toward immortalized ovarian surface epithelium – cell-based, plate reader, dry powder samples, cytotoxicity control for PAX8 inhibitor project, dose response (AID 743045); assay type: functional
[10] = A2780 cell killing – plate reader, dry powder samples, cytotoxicity control, dose response (AID 743046); assay type: functional, cell-based
[11] = COV362 cell viability loss – plate reader, dry powder, SA12, cytotoxicity control for PAX8 inhibitor project, dose response (AID 743144); assay type: functional, cell-based
BJ [12] = assay: cells; assay type: functional, cell-based; settings: Homo sapiens
BJ [13] = assay: BJ-TERT fibroblast viability loss – cell-based, RAS-independent, luminescence, dose response (AID 1933); assay type: functional; settings: Homo sapiens
[14] = OVCAR4 cell viability loss – plate reader, dry powder, SA11, cytotoxicity control for PAX8 inhibitor project, dose response (AID 743150); assay type: functional, cell-based; settings: OVCAR-4
[15] = molecular target: T1, Heat shock factor protein 1 (Mus musculus, UniProt P38532); assay: enhancement of HSF1-driven luciferase signal – cell-based, NIH3T3, luminescence, dose retest, confirmation (AID 435004); assay type: functional;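 note: stress induced by proteasome inhibitor MG132 added 30 min after compound; luciferase reporter driven by HSF1 response element in NIH3T3 cells; actives raise luminescence as potentiators of the MG132 stress response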
T1 sequence (P38532 whole entry): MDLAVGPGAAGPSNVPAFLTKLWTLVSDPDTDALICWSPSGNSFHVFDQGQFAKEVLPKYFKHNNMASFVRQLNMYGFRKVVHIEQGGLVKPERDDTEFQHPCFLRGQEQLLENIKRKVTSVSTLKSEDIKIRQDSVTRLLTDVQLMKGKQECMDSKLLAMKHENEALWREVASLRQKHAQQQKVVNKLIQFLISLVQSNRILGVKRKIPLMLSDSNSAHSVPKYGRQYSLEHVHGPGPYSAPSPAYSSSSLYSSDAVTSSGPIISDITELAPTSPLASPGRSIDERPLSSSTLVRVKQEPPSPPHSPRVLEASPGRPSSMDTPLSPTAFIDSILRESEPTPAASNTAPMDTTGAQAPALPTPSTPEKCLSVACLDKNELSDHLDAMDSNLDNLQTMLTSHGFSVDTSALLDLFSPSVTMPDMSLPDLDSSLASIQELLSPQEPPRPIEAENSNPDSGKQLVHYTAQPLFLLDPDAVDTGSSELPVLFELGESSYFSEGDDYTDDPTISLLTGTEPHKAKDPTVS

[16] = DRD fibroblast viability loss – cell-based, non-viral oncogenic, luminescence, dose response (AID 1934); assay type: functional; settings: Homo sapiens
Paired box protein Pax-8 = Paired box protein Pax-8 (Homo sapiens, UniProt Q06710); assay: PAX8 transcriptional activity inhibition in RMG-I – RMG-I cells, luciferase, cherry-pick, dose response (AID 687027); assay type: functional, cell-based;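 note: luciferase reporter driven by Pax8 target thyroperoxidase promoter measured by SteadyGlo luminescence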
INS1 = assay: INS-1E survival protection against cytokine death – cell-based, luminescence, retest, dose response (AID 449756); assay type: functional; settings: Rattus norvegicus, INS1;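 note: cell death triggered by IL-1 beta plus TNF-alpha plus IFN-gamma mixture; protective hits raise ATP signal compared with cytokine alone wells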
[17] = inhibitors acting on PAX2 in cells – cell-based, plate reader, dry powder samples, selectivity assay for PAX8 inhibitor project, dose response (AID 743048); assay type: functional;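 note: HEK293 cells carrying a WT1 promoter luciferase reporter driven by expressed Pax2; potency is for inhibition of Pax2 driven reporter signal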
[18] = OV-90 cell viability loss – plate reader, dry powder, SA8, PAX8 inhibitor project, dose response (AID 743149); assay type: functional, cell-based
[19] = Luminescence Cell-Based Dose Response HTS to Identify Inhibitors of 5'UTR Stem-Loop Driven Prion Protein mRNA Translation in H4 Neuroglioblastoma Cells. [Related pubchem assays: 1827 (Project Summary), 1813 (Primary HTS)]; assay type: functional
BJ [20] = assay: BJ-TERT-LT-ST fibroblast viability loss – cell-based, RAS-independent, luminescence, dose response (AID 1935); assay type: functional; settings: Homo sapiens;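 note: BJ fibroblasts immortalized with TERT plus LT and ST oncogenes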
[21] = IGROV1 cell killing – plate reader, dry powder samples, PAX8 inhibitor project, dose response (AID 743043); assay type: functional, cell-based; settings: IGROV-1
[22] = viability loss in HEK293T cells – cell-based, cherry-picks, cytotoxicity control for HIV Vif inhibitor project, dose response (AID 652208); assay type: functional
[23] = Fluorescence-based cell-based high throughput dose response assay for inhibitors of the interaction of nucleotide-binding oligomerization domain containing 2 (NOD2) and the receptor-interacting serine-threonine kinase 2 (RIPK2).; assay type: functional; settings: Homo sapiens
[24] = PAX5 cellular inhibition readout – cell-based, plate reader, dry powder samples, selectivity assay for PAX8 inhibitor project, dose response (AID 743047); assay type: functional;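 note: HEK293 cells carrying a Pax5 driven CD19 promoter luciferase reporter; potency of inhibitors that lower reporter luminescence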
[25] = COV434 cell viability loss – plate reader, dry powder, SA7, cytotoxicity control for PAX8 inhibitor project, dose response (AID 743145); assay type: functional, cell-based
[26] = molecular target: RAC-gamma serine/threonine-protein kinase (Homo sapiens, UniProt Q9Y243); assay type: functional
[27] = molecular target: Serine/threonine-protein kinase DCLK1 (Homo sapiens, UniProt O15075); assay type: functional;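 note: affinity for DCLK1 (listed as DCAMKL1) measured as one member of a kinome-wide kinase profiling panel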
[28] = molecular target: Receptor-type tyrosine-protein kinase FLT3 (Homo sapiens, UniProt P36888); assay type: functional;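 note: FLT3 was tested as one member of a kinome-wide kinase panel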
[29] = molecular target: Serine/threonine-protein kinase PAK 1 (Homo sapiens, UniProt Q13153); assay type: functional
[30] = molecular target: Interleukin-1 receptor-associated kinase 4 (Homo sapiens, UniProt Q9NWZ3); assay type: functional
[31] = molecular target: Serine/threonine-protein kinase BRSK1 (Homo sapiens, UniProt Q8TDC3); assay type: functional;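 note: measured within a kinome-wide kinase panel, with the target listed as KIAA1811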
[32] = molecular target: Serine/threonine-protein kinase pim-3 (Homo sapiens, UniProt Q86V86); assay type: functional;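 note: value obtained as one member of a broad kinase panel profiling effort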
[33] = molecular target: MAP kinase-interacting serine/threonine-protein kinase 2 (Homo sapiens, UniProt Q9HBH9); assay type: functional
LIM domain kinase 1 = LIM domain kinase 1 (Homo sapiens, UniProt P53667); assay: Navigating the Kinome. Panel member name: LIMK1; assay type: functional
[34] = molecular target: Serine/threonine-protein kinase MRCK alpha (Homo sapiens, UniProt Q5VT25); assay type: functional
Aurora kinase B = Aurora kinase B (Homo sapiens, UniProt Q96GD4); assay type: functional
[35] = molecular target: Serine/threonine-protein kinase pim-1 (Homo sapiens, UniProt P11309); assay type: functional
[36] = molecular target: Cyclin-dependent kinase 5 (Homo sapiens, UniProt Q00535); assay type: functional;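 note: CDK5 measured as one member of a kinase profiling panel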
Aurora kinase A = Aurora kinase A (Homo sapiens, UniProt O14965); assay type: functional;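 note: value from the Navigating the Kinome kinase panel profiling, panel entry STK6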
[37] = molecular target: Cyclin-dependent kinase 8 (Homo sapiens, UniProt P49336); assay: Navigating the Kinome. Panel member name: CDK8; assay type: functional
Activin receptor type-1 = Activin receptor type-1 (Homo sapiens, UniProt Q04771); assay: Navigating the Kinome. Panel member name: ACVR1; assay type: functional
[38] = molecular target: Platelet-derived growth factor receptor alpha (Homo sapiens, UniProt P16234); assay: Navigating the Kinome. Panel member name: PDGFRA; assay type: functional
[39] = molecular target: Dual specificity tyrosine-phosphorylation-regulated kinase 1B (Homo sapiens, UniProt Q9Y463); assay: Navigating the Kinome. Panel member name: DYRK1B; assay type: functional
[40] = molecular target: Dual specificity tyrosine-phosphorylation-regulated kinase 1A (Homo sapiens, UniProt Q13627); assay type: functional;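 note: measured against DYRK1A as one member of a broad kinome profiling panel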
[41] = molecular target: Inhibitor of nuclear factor kappa-B kinase subunit epsilon (Homo sapiens, UniProt Q14164); assay: Navigating the Kinome. Panel member name: IKBKE; assay type: functional
[42] = molecular target: Serine/threonine-protein kinase TBK1 (Homo sapiens, UniProt Q9UHD2); assay: Navigating the Kinome. Panel member name: TBK1; assay type: functional
[43] = molecular target: Serine/threonine-protein kinase Nek2 (Homo sapiens, UniProt P51955); assay type: functional
[44] = molecular target: Tyrosine-protein kinase receptor TYRO3 (Homo sapiens, UniProt Q06418); assay type: functional;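 note: TYRO3 value obtained as one member of a kinome-wide profiling panel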
[45] = molecular target: Death-associated protein kinase 3 (Homo sapiens, UniProt O43293); assay type: functional;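 note: measured as one member of a kinome-wide profiling panel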
[46] = molecular target: cAMP-dependent protein kinase catalytic subunit PRKX (Homo sapiens, UniProt P51817); assay type: functional
[47] = molecular target: Leukocyte tyrosine kinase receptor (Homo sapiens, UniProt P29376); assay: Navigating the Kinome. Panel member name: LTK; assay type: functional
[48] = molecular target: Leucine-rich repeat serine/threonine-protein kinase 2 (Homo sapiens, UniProt Q5S007); assay type: functional;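 note: value from a broad kinome-wide panel profiling study in which LRRK2 was one of the kinases tested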
[49] = molecular target: Dual specificity protein kinase CLK4 (Homo sapiens, UniProt Q9HAZ1); assay type: functional
[50] = molecular target: Cyclin-dependent kinase 9 (Homo sapiens, UniProt P50750); assay type: functional;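 note: value from the CDK9 entry of a kinome-spanning kinase panel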
[51] = molecular target: 5'-AMP-activated protein kinase catalytic subunit alpha-1 (Homo sapiens, UniProt Q13131); assay type: functional
[52] = molecular target: Multidrug resistance protein CDR2 (Candida albicans (strain SC5314 / ATCC MYA-2876) (Yeast), UniProt P78595); assay: inhibition of Nile Red efflux via Candida CDR2 – S. cerevisiae AD1-8u, singleplex, Cherry Pick1 hits, dose response (AID 588604); assay type: functional
Beta-galactosidase = Beta-galactosidase (Escherichia coli, UniProt Q8VNN2); assay: Dose response counterscreen for EBI2 assay utilizing the enzyme, b-galactosidase.; assay type: functional
[53] = molecular target: Benomyl/methotrexate resistance protein (Candida albicans, UniProt P28873); assay: Candida albicans Mdr1 pump inhibition curves – singleplex, Cherry Pick1 hits, dose response (AID 588608); assay type: functional
[54] = molecular target: Multidrug resistance protein CDR1 (Candida albicans, UniProt P43071); assay: inhibition of Nile Red efflux via Candida CDR1 – S. cerevisiae AD1-8u, singleplex, Cherry Pick1 hits, dose response (AID 588606); assay type: functional

Chain of LIM domain kinase 1 (P53667 whole entry, the tested form may be a part): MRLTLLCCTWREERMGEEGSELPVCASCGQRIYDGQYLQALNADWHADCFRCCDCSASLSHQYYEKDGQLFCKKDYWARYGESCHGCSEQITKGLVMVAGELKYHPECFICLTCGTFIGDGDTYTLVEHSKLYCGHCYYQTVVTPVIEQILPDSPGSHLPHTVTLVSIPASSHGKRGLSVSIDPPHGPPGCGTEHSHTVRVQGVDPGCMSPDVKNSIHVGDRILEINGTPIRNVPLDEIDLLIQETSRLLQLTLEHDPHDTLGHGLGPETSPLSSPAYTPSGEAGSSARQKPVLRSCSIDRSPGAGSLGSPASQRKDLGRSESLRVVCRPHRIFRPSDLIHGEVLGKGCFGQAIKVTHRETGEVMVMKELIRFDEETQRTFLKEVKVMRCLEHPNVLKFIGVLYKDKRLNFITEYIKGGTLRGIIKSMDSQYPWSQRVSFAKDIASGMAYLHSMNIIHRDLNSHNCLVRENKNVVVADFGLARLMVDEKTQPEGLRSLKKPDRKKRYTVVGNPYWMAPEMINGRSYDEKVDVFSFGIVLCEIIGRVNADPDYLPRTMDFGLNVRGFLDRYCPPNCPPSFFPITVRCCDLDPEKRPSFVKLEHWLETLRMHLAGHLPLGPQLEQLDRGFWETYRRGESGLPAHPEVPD
Chain of 5'-AMP-activated protein kinase catalytic subunit alpha-1 (Q13131 whole entry): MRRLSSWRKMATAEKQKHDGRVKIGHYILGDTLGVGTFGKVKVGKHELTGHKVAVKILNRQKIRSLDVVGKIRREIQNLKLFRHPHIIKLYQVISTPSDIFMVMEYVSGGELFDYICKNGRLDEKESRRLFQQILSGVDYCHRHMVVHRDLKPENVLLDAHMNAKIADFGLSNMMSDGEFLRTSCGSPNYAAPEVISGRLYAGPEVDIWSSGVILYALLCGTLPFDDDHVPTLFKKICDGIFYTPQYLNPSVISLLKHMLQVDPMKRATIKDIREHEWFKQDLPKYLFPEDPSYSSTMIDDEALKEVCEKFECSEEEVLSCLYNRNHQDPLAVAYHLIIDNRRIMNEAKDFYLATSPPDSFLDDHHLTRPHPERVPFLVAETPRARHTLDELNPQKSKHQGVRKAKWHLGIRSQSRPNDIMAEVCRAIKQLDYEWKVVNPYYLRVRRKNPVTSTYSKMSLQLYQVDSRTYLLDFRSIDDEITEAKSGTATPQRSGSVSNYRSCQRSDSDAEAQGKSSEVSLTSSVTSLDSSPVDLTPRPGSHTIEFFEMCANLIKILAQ
Chain of Dual specificity tyrosine-phosphorylation-regulated kinase 1B (Q9Y463 whole entry): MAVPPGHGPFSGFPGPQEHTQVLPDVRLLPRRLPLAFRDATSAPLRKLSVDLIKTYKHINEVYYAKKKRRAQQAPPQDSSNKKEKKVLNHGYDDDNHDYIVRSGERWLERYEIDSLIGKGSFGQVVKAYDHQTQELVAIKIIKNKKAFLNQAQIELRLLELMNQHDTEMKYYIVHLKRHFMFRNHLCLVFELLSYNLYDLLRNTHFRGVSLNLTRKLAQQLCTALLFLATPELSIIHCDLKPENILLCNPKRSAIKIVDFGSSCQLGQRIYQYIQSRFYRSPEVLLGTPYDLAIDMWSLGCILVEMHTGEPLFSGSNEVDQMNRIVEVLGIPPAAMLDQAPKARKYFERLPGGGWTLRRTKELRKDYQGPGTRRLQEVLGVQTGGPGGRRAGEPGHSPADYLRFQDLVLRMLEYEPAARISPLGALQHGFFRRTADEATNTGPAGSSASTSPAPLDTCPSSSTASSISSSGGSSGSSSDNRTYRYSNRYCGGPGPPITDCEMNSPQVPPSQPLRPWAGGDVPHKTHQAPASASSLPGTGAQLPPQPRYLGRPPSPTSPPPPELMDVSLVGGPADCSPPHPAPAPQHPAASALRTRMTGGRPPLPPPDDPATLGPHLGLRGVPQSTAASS
Chain of Benomyl/methotrexate resistance protein (P28873 whole entry): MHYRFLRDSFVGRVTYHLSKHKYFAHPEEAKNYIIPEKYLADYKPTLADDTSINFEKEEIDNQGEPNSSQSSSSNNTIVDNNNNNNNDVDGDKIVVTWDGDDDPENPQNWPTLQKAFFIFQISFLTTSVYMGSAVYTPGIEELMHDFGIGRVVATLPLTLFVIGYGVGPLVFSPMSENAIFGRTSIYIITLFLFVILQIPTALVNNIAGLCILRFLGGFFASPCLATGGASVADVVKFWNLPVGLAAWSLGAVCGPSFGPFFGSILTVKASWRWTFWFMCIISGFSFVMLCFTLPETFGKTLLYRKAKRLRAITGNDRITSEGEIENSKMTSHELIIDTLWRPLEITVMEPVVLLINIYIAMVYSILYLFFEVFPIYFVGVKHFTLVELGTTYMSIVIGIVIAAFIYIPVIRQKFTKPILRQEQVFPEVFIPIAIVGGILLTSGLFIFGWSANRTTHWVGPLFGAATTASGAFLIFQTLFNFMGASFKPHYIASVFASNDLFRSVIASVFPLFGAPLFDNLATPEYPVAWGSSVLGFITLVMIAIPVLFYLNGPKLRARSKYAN
Chain of Activin receptor type-1 (Q04771 whole entry): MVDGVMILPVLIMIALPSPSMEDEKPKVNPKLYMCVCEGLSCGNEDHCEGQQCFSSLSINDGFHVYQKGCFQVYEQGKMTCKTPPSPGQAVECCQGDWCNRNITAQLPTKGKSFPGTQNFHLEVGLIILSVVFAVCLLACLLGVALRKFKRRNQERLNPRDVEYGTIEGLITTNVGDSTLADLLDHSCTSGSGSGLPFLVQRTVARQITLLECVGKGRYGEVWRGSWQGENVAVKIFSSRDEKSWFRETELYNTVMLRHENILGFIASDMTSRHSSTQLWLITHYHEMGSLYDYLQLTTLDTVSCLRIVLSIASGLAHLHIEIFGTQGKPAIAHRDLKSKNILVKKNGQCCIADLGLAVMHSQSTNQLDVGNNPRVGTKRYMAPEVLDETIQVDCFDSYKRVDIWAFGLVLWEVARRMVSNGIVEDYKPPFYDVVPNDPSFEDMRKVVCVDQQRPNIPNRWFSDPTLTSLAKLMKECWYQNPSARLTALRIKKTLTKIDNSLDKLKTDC
Chain of Serine/threonine-protein kinase pim-1 (P11309 whole entry): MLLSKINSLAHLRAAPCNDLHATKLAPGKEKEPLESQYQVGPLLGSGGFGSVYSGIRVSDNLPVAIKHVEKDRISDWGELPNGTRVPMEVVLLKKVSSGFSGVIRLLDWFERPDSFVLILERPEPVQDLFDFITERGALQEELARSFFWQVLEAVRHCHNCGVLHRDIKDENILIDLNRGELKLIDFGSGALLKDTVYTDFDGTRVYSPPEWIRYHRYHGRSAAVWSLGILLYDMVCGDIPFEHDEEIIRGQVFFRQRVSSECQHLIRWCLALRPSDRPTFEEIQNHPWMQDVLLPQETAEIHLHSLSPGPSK
Chain of Cyclin-dependent kinase 8 (P49336 whole entry): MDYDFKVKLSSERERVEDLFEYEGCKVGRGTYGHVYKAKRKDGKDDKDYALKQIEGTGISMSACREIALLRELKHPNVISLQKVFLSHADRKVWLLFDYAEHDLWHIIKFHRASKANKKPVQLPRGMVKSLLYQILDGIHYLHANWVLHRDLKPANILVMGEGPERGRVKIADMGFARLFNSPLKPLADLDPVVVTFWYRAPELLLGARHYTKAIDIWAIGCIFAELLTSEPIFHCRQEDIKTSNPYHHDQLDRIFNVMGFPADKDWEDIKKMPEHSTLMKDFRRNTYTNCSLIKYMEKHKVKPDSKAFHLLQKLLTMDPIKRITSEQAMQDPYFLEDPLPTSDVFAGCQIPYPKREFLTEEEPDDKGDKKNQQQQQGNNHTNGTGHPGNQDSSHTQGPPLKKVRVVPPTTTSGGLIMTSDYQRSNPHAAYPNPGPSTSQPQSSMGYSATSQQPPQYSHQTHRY
Chain of Dual specificity protein kinase CLK4 (Q9HAZ1 whole entry): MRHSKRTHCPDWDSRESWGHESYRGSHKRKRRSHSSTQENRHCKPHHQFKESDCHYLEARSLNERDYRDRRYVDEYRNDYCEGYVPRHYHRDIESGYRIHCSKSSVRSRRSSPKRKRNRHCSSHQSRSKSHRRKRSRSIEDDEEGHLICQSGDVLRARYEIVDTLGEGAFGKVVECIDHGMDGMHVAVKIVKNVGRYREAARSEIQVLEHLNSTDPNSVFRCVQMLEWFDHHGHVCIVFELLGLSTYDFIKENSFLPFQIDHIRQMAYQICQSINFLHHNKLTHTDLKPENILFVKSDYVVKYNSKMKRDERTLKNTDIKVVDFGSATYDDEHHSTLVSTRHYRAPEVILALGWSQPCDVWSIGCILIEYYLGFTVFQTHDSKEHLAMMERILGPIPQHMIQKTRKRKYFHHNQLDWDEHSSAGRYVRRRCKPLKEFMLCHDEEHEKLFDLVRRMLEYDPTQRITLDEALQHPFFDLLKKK
Chain of cAMP-dependent protein kinase catalytic subunit PRKX (P51817 whole entry): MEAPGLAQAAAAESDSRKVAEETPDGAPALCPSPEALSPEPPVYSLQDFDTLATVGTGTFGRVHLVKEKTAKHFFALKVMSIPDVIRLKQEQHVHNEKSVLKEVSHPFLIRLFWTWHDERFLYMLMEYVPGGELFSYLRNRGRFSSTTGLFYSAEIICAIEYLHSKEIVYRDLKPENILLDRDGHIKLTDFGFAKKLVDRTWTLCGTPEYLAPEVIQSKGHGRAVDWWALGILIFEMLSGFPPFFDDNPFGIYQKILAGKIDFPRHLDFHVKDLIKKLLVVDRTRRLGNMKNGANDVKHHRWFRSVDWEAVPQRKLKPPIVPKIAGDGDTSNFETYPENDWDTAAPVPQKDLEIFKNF
Chain of Serine/threonine-protein kinase Nek2 (P51955 whole entry): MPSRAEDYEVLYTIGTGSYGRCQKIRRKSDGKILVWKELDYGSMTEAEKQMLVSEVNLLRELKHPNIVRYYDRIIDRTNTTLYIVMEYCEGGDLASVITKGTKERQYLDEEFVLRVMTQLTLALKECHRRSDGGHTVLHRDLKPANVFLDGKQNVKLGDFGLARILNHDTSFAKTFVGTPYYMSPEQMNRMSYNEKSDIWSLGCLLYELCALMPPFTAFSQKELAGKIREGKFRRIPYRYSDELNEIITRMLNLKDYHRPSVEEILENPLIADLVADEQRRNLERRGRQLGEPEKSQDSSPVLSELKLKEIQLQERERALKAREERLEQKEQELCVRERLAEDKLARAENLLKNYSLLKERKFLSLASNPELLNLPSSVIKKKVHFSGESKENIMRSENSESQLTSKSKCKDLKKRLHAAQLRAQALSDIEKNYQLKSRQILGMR

SMILES: COc1ccc(/C=C2\CN(Cc3ccccc3)C/C(=C\c3ccc(OC)c(O)c3)C2=O)cc1O
- AC50 [1]: 2.98 µM (active)
- AC50 [2]: 9.32 µM (active)
- EC50 (BJ [3]): 0.435 µM (active)
- IC50 (Vero [4]): 23.2 µM (active)
- CC50 (Vero [5]): 2.75 µM (active)
- EC50 [6]: 8.62 µM (inconclusive)
- EC50 [7]: 9.23 µM (inconclusive)
- AC50 [8]: 7.31 µM (active)
- AC50 [9]: 8.94 µM (active)
- AC50 [10]: 12.5 µM (active)
- AC50 [11]: 4.34 µM (active)
- EC50 (BJ [12]): 4.4 µM (active)
- EC50 (BJ [13]): 2.04 µM (active)
- AC50 [14]: 4.93 µM (active)
- EC50 [15]: 8.35 µM (active)
- EC50 [16]: 2.65 µM (active)
- AC50 (Paired box protein Pax-8): 4.63 µM (active)
- AC50 (INS1): 4.23 µM (active)
- AC50 [17]: 14.2 µM (active)
- AC50 [18]: 3.79 µM (active)
- EC50 [19]: > 120 µM (not active)
- EC50 (BJ [20]): 2.23 µM (active)
- AC50 [21]: 21.6 µM (active)
- AC50 [22]: 5.24 µM (active)
- IC50 [23]: 5.53 µM (active)
- AC50 [24]: 14.3 µM (active)
- AC50 [25]: 4.16 µM (active)

SMILES: NC(=O)c1cccc2[nH]c(-c3cccc(NCCN4CCCC4)n3)nc12
- Ki [26]: > 10 µM (inactive)
- Ki [27]: > 10 µM (inactive)
- Ki [28]: 1.26 µM (active)
- Ki [29]: > 10 µM (inactive)
- Ki [30]: > 10 µM (inactive)
- Ki [31]: 5.01 µM (active)
- Ki [32]: 1 µM (active)
- Ki [33]: 2.51 µM (active)
- Ki (LIM domain kinase 1): > 10 µM (inactive)
- Ki [34]: > 10 µM (inactive)
- Ki (Aurora kinase B): 1.26 µM (active)
- Ki [35]: 2 µM (active)

SMILES: Cc1cc(=O)[nH]c2[nH]n(-c3ccccc3)c(=O)c12
- Ki [36]: 50.1 µM (active)
- Ki (Aurora kinase A): 50.1 µM (active)
- Ki [37]: 39.8 µM (active)
- Ki (Activin receptor type-1): 79.4 µM (active)
- Ki [38]: 100 µM (active)
- Ki [39]: 12.6 µM (active)
- Ki [40]: 20 µM (active)
- Ki [41]: 50.1 µM (active)
- Ki [42]: 50.1 µM (active)
- Ki [43]: 50.1 µM (active)
- Ki [44]: 50.1 µM (active)
- Ki [45]: 63.1 µM (active)
- Ki [46]: 63.1 µM (active)
- Ki [47]: 20 µM (active)
- Ki [48]: 39.8 µM (active)
- Ki (LIM domain kinase 1): 12.6 µM (active)
- Ki [49]: 10 µM (active)
- Ki [50]: 39.8 µM (active)
- Ki [51]: 79.4 µM (active)

SMILES: O=C1C(Cc2ccccc2)Nc2ncnc(N3CCN(c4ccccc4)CC3)c2N1Cc1ccc(Br)cc1 (configuration not stated)
- EC50 [52]: 10.8 µM (active)
- IC50 (Beta-galactosidase): 2.54 µM (active)
- EC50 [53]: 21.2 µM (active)
- EC50 [54]: 11.1 µM (active)

— ChEMBL document CHEMBL1201862, “PubChem BioAssay data set” (2004)
